Reference: patent publication US8222417B2, “Compound having 11β-HSD1 inhibitory activity” (Taisho Pharmaceutical Co., Ltd, priority 2007, dated 2012)

Target: T1, 11β-HSD1 (Homo sapiens, UniProt P28845)
T1 construct: human liver microsome (enzyme source, Tissue Transformation Technologies); tissue Tissue Transformation Technologies; host or cells: human liver microsomes
Experiment: 11β-HSD1 inhibition test (human liver microsome, HTRF cortisol detection)
Assay type: biochemical
Conditions: human liver microsome as enzyme source; cortisone 100 nM; 20° C., 80 minutes; generated cortisol quantified by HTRF
Procedure: Test Example [11β-HSD1 Inhibition Test]
Test Compounds were Evaluated as Follows.
11β-HSD1 enzyme reaction was performed in a reaction solution of 100 μl total volume using 96-well polypropylene microplates. The reaction solution was prepared in 30 mM Tris-HCl (pH 7.4)/1 mM EDTA buffer to contain NADPH at a final concentration of 100 μM, G6P at a final concentration of 1 mM, human liver microsome (enzyme source, Tissue Transformation Technologies) at a final concentration of 0.8 μg/ml and 10 μl of a test compound dissolved in DMSO. The enzyme reaction was initiated by addition of cortisone at a final concentration of 100 nM. After incubation at 20° C. for 80 minutes, 10 μl of 1 mM 18β glycyrrhetinic acid, which is a non-specific inhibitor, was added to stop the reaction. Next, the amount of generated cortisol was quantified with a detection kit (Sceti Medical Labo K.K., Japan) according to the HTRF (Homogeneous Time-Resolved Fluorescence) method. This system detects fluorescence resonance energy transfer between europium-labeled anti-cortisol antibody and XL665-labeled cortisol. Upon addition of unlabeled cortisol, binding signals will be attenuated due to competitive reaction. Based on this principle, the amount of cortisol generated by the enzyme reaction was evaluated using a standard curve obtained from samples with known concentrations of cortisol included in the kit. The HTRF reaction was performed in 96-well half area microplates as follows: to 30 μl enzyme reaction solution, an anti-cortisol antibody solution (15 μl) and an XL665-labeled cortisol solution (15 μl) included in the kit were added, and the plates were vortexed at room temperature for 1 hour and further allowed to stand at 20° C. for 1 hour. 40 μl of this reaction solution was transferred to 384-well microplates and measured for its fluorescence. 18β Glycyrrhetinic acid was added to wells before initiation of the enzyme reaction and the amount of cortisol generated in these wells was used as a background level. Test compounds were evaluated using serial dilutions at a common ratio of 3 to calculate their IC50 values, assuming that the amount of cortisol generated in wells containing no test compound was set to 100% enzyme activity.

T1 sequence (P28845 whole entry): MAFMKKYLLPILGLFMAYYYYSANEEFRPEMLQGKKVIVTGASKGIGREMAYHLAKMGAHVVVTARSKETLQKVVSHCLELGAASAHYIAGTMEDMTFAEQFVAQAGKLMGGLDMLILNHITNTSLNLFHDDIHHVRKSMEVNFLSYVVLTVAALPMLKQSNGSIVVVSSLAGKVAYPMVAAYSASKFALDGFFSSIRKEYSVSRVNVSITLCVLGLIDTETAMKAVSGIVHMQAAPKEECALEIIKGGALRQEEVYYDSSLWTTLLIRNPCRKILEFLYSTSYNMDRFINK

Row | IC50 [nM] | SMILES
1 | 1.5 | O=C(NC1C2CC3CC(C2)CC1C3)N1CCCc2ccccc21 (stereo not drawn) [Compound A-5, N-adamantan-2-yl-3,4-dihydroquinoline-1(2H)-carboxamide]
2 | 8.3 | O=C(N[C@H]1C2CC3CC1C[C@](O)(C3)C2)N1CCc2ccccc21 [Compound A-6, N—[E-1-hydroxyadamantan-4-yl]-2,3-dihydro-1H-indole-1-carboxamide]
3 | 9.6 | CN(C(=O)N1CCCc2ccccc21)[C@H]1C2CC3CC1C[C@](O)(C3)C2 [Compound A-7, N-[E-1-hydroxyadamantan-4-Y^1]-N-methyl-3,4-dihydroquinoline-1(2H)-carboxamide]
